For orientation: IC50 means the midpoint of a concentration-inhibition curve.

The target in this test is Human thrombin (Homo sapiens (Human), UniProt P00734). The experiment in a line: Thrombin protease activity inhibition assay (chromogenic substrate S-2238). It is filed as biochemical. Conditions: 3 nM thrombin, 125 μM S-2238, 10 min pre-incubation, RT. The essentials: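 Ten-point, three-fold serial dilutions of compound tested against 3 nM enzyme at RT in Tris buffer (0.05 M, pH 7.4) with 0.015 M NaCl and 0.01% PEG-8000.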
For `COc1ccc(C(=O)n2nc(-c3cccn(Cc4cccnn4)c3=O)cc2NCc2ccc(Cl)s2)c(OC)c1` [Cmpd 124, 3-(5-[(5-chlorothiophen-2-yl)methyl]amino-1-[(2,4-dimethoxyphenyl)carbonyl]-1H-pyrazol-3-yl)-1-(pyridazin-3-ylmethyl)-1,2-dihydropyridin-2-one], the IC50 was below 100 nM.
In the case of `COc1ccc(C(=O)n2nc(-c3cccn(Cc4ccncc4)c3=O)cc2NCc2ccc(Cl)s2)c(OC)c1` [Cmpd 127, 3-(5-[(5-chlorothiophen-2-yl)methyl]amino-1-[(2,4-dimethoxyphenyl)carbonyl]-1H-pyrazol-3-yl)-1-(pyridin-4-ylmethyl)-1,2-dihydropyridin-2-one] it was below 100 nM; in that of `COc1ccc(C(=O)n2nc(-c3cccn(Cc4ncccn4)c3=O)cc2NCc2ccc(Cl)s2)c(OC)c1` [Cmpd 128, 3-(5-[(5-chlorothiophen-2-yl)methyl]amino-1-[(2,4-dimethoxyphenyl)carbonyl]-1H-pyrazol-3-yl)-1-(pyrimidin-2-ylmethyl)-1,2-dihydropyridin-2-one], above 100000 nM; in that of `COc1ccc(C(=O)n2nc(-c3cccn(Cc4cccs4)c3=O)cc2NCc2ccc(Cl)s2)c(OC)c1` [Cmpd 129, 3-(5-[(5-chlorothiophen-2-yl)methyl]amino-1-[(2,4-dimethoxyphenyl)carbonyl]-1H-pyrazol-3-yl)-1-(thiophen-2-ylmethyl)-1,2-dihydropyridin-2-one], below 100 nM.
`COc1ccc(C(=O)n2nc(-c3cccn(Cc4ccsc4)c3=O)cc2NCc2ccc(Cl)s2)c(OC)c1` [Cmpd 130, 3-(5-[(5-chlorothiophen-2-yl)methyl]amino-1-[(2,4-dimethoxyphenyl)carbonyl]-1H-pyrazol-3-yl)-1-(thiophen-3-ylmethyl)-1,2-dihydropyridin-2-one]: the IC50 was below 100 nM.
In the case of `COCCn1cccc(-c2cc(NCc3ccc(Cl)s3)n(C(=O)c3ccccc3OC)n2)c1=O` [Cmpd 133, 3-(5-[(5-chlorothiophen-2-yl)methyl]amino-1-[(2-methoxyphenyl)carbonyl]-1H-pyrazol-3-yl)-1-(2-methoxyethyl)-1,2-dihydropyridin-2-one] it was below 100 nM; in that of `COc1ccccc1C(=O)n1nc(-c2cccn(CCc3ccccc3)c2=O)cc1NCc1ccc(Cl)s1` [Cmpd 134, 3-(5-[(5-chlorothiophen-2-yl)methyl]amino-1-[(2-methoxyphenyl)carbonyl]-1H-pyrazol-3-yl)-1-(2-phenylethyl)-1,2-dihydropyridin-2-one], below 100 nM; in that of `COc1ccccc1C(=O)n1nc(-c2cccn(Cc3ccco3)c2=O)cc1NCc1ccc(Cl)s1` [Cmpd 135, 3-(5-[(5-chlorothiophen-2-yl)methyl]amino-1-[(2-methoxyphenyl)carbonyl]-1H-pyrazol-3-yl)-1-(furan-2-ylmethyl)-1,2-dihydropyridin-2-one], below 100 nM.
In the case of `COc1ccccc1C(=O)n1nc(-c2cccn(Cc3ccoc3)c2=O)cc1NCc1ccc(Cl)s1` [Cmpd 136, 3-(5-[(5-chlorothiophen-2-yl)methyl]amino-1-[(2-methoxyphenyl)carbonyl]-1H-pyrazol-3-yl)-1-(furan-3-ylmethyl)-1,2-dihydropyridin-2-one] it was below 100 nM; in that of `COc1ccccc1C(=O)n1nc(-c2cccn(Cc3ccc4ccccc4c3)c2=O)cc1NCc1ccc(Cl)s1` [Cmpd 137, 3-(5-[(5-chlorothiophen-2-yl)methyl]amino-1-[(2-methoxyphenyl)carbonyl]-1H-pyrazol-3-yl)-1-(naphthalen-2-ylmethyl)-1,2-dihydropyridin-2-one], below 100 nM.
Consider `COc1ccccc1C(=O)n1nc(-c2cccn(Cc3ccccn3)c2=O)cc1NCc1ccc(Cl)s1` [Cmpd 139, 3-(5-[(5-chlorothiophen-2-yl)methyl]amino-1-[(2-methoxyphenyl)carbonyl]-1H-pyrazol-3-yl)-1-(pyridin-2-ylmethyl)-1,2-dihydropyridin-2-one], for which the half-inhibitory concentration (IC50) was below 100 nM.
In the case of `COc1ccccc1C(=O)n1nc(-c2cccn(Cc3ccncc3)c2=O)cc1NCc1ccc(Cl)s1` [Cmpd 141, 3-(5-[(5-chlorothiophen-2-yl)methyl]amino-1-[(2-methoxyphenyl)carbonyl]-1H-pyrazol-3-yl)-1-(pyridin-4-ylmethyl)-1,2-dihydropyridin-2-one] it was below 100 nM.
The value for `COc1ccccc1C(=O)n1nc(-c2cccn(Cc3ncccn3)c2=O)cc1NCc1ccc(Cl)s1` [Cmpd 142, 3-(5-[(5-chlorothiophen-2-yl)methyl]amino-1-[(2-methoxyphenyl)carbonyl]-1H-pyrazol-3-yl)-1-(pyrimidin-2-ylmethyl)-1,2-dihydropyridin-2-one] was below 100 nM; that for `COc1ccccc1C(=O)n1nc(-c2cccn(Cc3cccs3)c2=O)cc1NCc1ccc(Cl)s1` [Cmpd 143, 3-(5-[(5-chlorothiophen-2-yl)methyl]amino-1-[(2-methoxyphenyl)carbonyl]-1H-pyrazol-3-yl)-1-(thiophen-2-ylmethyl)-1,2-dihydropyridin-2-one] was below 100 nM; that for `COc1ccccc1C(=O)n1nc(-c2cccn(Cc3ccsc3)c2=O)cc1NCc1ccc(Cl)s1` [Cmpd 144, 3-(5-[(5-chlorothiophen-2-yl)methyl]amino-1-[(2-methoxyphenyl)carbonyl]-1H-pyrazol-3-yl)-1-(thiophen-3-ylmethyl)-1,2-dihydropyridin-2-one] was below 100 nM.
Turning to `COc1ccccc1C(=O)n1nc(-c2cccn(CCN3CCOCC3)c2=O)cc1NCc1ccc(Cl)s1` [Cmpd 146, 3-(5-[(5-chlorothiophen-2-yl)methyl]amino-1-[(2-methoxyphenyl)carbonyl]-1H-pyrazol-3-yl)-1-[2-(morpholin-4-yl)ethyl]-1,2-dihydropyridin-2-one], the IC50 is below 100 nM.
In the case of `COc1ccccc1C(=O)n1nc(-c2cccn(C)c2=O)cc1NCc1ccc(Cl)s1` [Cmpd 147, 3-(5-[(5-chlorothiophen-2-yl)methyl]amino-1-[(2-methoxyphenyl)carbonyl]-1H-pyrazol-3-yl)-1-methyl-1,2-dihydropyridin-2-one] it was below 100 nM; in that of `Cn1cccc(-c2cc(NCc3ccc(Cl)s3)n(C(=O)C3(C)COC3)n2)c1=O` [Cmpd 148, 3-(5-[(5-chlorothiophen-2-yl)methyl]amino-1-[(3-methyloxetan-3-yl)carbonyl]-1H-pyrazol-3-yl)-1-methyl-1,2-dihydropyridin-2-one], 100 to 1000 nM; in that of `CC1(C(=O)n2nc(-c3cccn(Cc4ccco4)c3=O)cc2NCc2ccc(Cl)s2)CCOCC1` [Cmpd 150, 3-(5-[(5-chlorothiophen-2-yl)methyl]amino-1-[(4-methyloxan-4-yl)carbonyl]-1H-pyrazol-3-yl)-1-(furan-2-ylmethyl)-1,2-dihydropyridin-2-one], below 100 nM.
The compound `CC1(C(=O)n2nc(-c3cccn(Cc4ccoc4)c3=O)cc2NCc2ccc(Cl)s2)CCOCC1` [Cmpd 151, 3-(5-[(5-chlorothiophen-2-yl)methyl]amino-1-[(4-methyloxan-4-yl)carbonyl]-1H-pyrazol-3-yl)-1-(furan-3-ylmethyl)-1,2-dihydropyridin-2-one] came in with an IC50 below 100 nM.
In the case of `CC1(C(=O)n2nc(-c3cccn(Cc4cccnn4)c3=O)cc2NCc2ccc(Cl)s2)CCOCC1` [Cmpd 152, 3-(5-[(5-chlorothiophen-2-yl)methyl]amino-1-[(4-methyloxan-4-yl)carbonyl]-1H-pyrazol-3-yl)-1-(pyridazin-3-ylmethyl)-1,2-dihydropyridin-2-one] it was below 100 nM.

These data come from patent publication US9687479B2, “Multisubstituted aromatic compounds as serine protease inhibitors” (VERSEON CORPORATION, priority 2013, dated 2017).
